{"source": "paper PMC2778643", "about": "“Differential role of the menthol-binding residue Y745 in the antagonism of thermally gated TRPM8 channels” (Molecular Pain, 2009)", "key": {"TRPM8-wt channel [1]": {"system": "TRPM8-wt channel", "details": "electrophysiology (EP), +80 mV, cited from earlier work"}, "[2]": {"biological_target": "T1, TRPM8-Y745H mutant channel (Mus musculus, UniProt Q8R4D5, Y745H)", "T1 construct": "The full length cDNA encoding mouse TRPM8 (NM_134252) in pcDNA5; expressed in transfected cells; host or cells: HEK293", "T1 sequence (Q8R4D5 whole entry Y745H)": "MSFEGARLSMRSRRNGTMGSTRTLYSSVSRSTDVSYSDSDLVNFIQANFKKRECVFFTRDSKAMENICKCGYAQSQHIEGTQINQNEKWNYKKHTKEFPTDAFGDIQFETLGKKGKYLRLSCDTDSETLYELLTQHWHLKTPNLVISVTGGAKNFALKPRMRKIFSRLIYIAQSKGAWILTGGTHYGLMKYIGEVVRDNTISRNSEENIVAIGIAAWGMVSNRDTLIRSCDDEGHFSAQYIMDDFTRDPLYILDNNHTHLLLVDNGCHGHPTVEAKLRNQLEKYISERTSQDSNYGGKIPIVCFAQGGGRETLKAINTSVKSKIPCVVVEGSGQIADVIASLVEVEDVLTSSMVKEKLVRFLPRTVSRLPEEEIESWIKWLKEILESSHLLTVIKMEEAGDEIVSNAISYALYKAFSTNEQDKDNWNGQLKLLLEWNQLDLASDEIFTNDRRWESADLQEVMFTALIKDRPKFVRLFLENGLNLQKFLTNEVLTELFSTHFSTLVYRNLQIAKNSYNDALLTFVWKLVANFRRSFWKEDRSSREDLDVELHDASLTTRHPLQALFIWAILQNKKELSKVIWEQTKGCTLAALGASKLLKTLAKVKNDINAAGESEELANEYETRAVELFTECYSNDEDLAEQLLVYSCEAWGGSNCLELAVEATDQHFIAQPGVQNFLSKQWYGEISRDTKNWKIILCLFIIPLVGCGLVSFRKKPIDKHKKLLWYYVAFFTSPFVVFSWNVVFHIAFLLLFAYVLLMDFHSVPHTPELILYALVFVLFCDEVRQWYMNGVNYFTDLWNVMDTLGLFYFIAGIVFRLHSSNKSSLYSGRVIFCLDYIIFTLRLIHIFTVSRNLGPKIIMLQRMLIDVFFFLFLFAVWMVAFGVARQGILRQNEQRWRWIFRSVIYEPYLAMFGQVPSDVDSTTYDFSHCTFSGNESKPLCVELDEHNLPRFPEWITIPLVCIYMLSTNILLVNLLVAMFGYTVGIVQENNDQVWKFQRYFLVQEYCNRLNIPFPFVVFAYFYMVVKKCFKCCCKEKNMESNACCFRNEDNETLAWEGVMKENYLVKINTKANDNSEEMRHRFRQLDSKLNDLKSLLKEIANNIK", "test": "Whole-cell patch clamp of HEK293 cells expressing TRPM8-Y745H", "type": "cell-based", "details": "for Inhibition of voltage-activated TRPM8-Y745H current: +120 mV", "method": "(§1) The full length cDNA encoding mouse TRPM8 (NM_134252) in pcDNA5 (Invitrogen) was kindly provided by Dr. Ardem Patapoutian, (Scripps Research Institute, La Jolla, CA). The TRPM8-Y745H mutant was obtained by site-directed mutagenesis with the following primers: (for) 5'-[…]-3'; (rev) 5'-[…]-3', and Pfu Turbo Taq DNA Polymerase (Roche).\n(§2) HEK293 cells were cultured in DMEM containing 10% of foetal bovine serum and antibiotics, and plated in 2 cm^2 wells at 400.000-500.000 cells/well. 20-24 h after plating, the cells were co-transfected with eGFP (0.3 μg/well) and TRPM8-wt or TRPM8-Y745H (2 μg/well) by incubating them with a solution containing the plasmid DNA and Lipofectamine 2000 (Invitrogen) for 5 hours. Subsequently, the cells were trypsinized and replated on poly-L-lysine-coated round coverslips (6 mm diameter). 20-48 h post-transfection, GFP(+) cells were selected for calcium imaging or electrophysiology experiments.\n(§3) Whole-cell voltage-clamp recordings of TRPM8-wt/Y745H transfected HEK293 cells were performed simultaneously with temperature recordings. Current development was monitored at a holding potential of -60 mV. For information on voltage-dependent effects, 1.25-s-duration voltage ramps from -100 to +150 mV were delivered at desired time points. Standard patch-pipettes (3-5 MΩ) were made of borosilicate glass capillaries (Harvard Apparatus Ltd, UK), and contained (in mM): 150 NaCl, 3 MgCl2, 5 EGTA, 10 HEPES, (278 mOsm/kg; pH 7.2, adjusted with NaOH). During electrophysiological recordings, a divalent cation -free bath solution was used to minimize desensitization, which contained: 150 NaCl, 10 EDTA, 10 HEPES and 10 glucose (pH 7.4 with NaOH). The divalent-free solution was used in the preparation of all chemical modulator containing solutions. Current signals were recorded with an Axopatch 200B patch-clamp amplifier (Molecular Devices, Sunnyvale, CA, U.S.A.) applying series resistance compensation (60-90%). Stimulus delivery and data acquisition were performed using pClamp 9 software (Molecular Devices). Data were sampled at 5 kHz (ramps) and 1 kHz (timecourse) and filtered online at 2 kHz.\n(§4) Coverslip pieces with cultured cells were placed in a microchamber and continuously perfused with solutions warmed at 33°C. The temperature was adjusted with a water-cooled Peltier device placed at the inlet of the chamber, and controlled by a feedback device. Cold-sensitivity was investigated with a temperature decrease to 18-20°C (Figure 1B).\nExperiments were always performed in parallel with cells expressing TRPM8-wt and TRPM8-Y745H to minimize any day-to-day variability in experimental conditions. To estimate the shifts in the voltage-dependence of activation of TRPM8-wt/Y745H in HEK293 cells, current-voltage (I-V) relationships from voltage ramps were fitted with an equation that combines a linear conductance multiplied by a Boltzmann activation term: [drawing 1]"}, "TRPM8-wt channel [3]": {"system": "TRPM8-wt channel", "details": "calcium imaging (CI), cited from earlier work"}, "[4]": {"biological_target": "T1, TRPM8-Y745H mutant channel", "test": "Calcium imaging (Fura-2) of HEK293 cells expressing TRPM8-Y745H", "type": "cell-based", "method": "as §1, §2\n(§5) Prior to experiment, HEK293 cells transfected with the TRPM8-wt/Y745H constructs were incubated with 5 μM Fura-2AM dissolved in the bath solution and 0.02% Pluronic (both from Invitrogen) for 40 min at 37°C in darkness. Fluorescence measurements were made with a Leica DM IRE2 inverted microscope fitted with a CCD camera (Imago QE Sensicam, TillPhotonics, Graefelfing, Germany). Fura-2 was excited at 340 nm and 380 nm with a Polychrome IV monochromator (Till Photonics) and the emitted fluorescence was filtered with a 510 nm longpass filter.\nas §4"}, "TRPM8-wt channel [5]": {"biological_target": "T2, TRPM8-wt channel (Mus musculus, UniProt Q8R4D5)", "T2 construct": "The full length cDNA encoding mouse TRPM8 (NM_134252) in pcDNA5; expressed in transfected cells; host or cells: HEK293", "test": "Whole-cell patch clamp of HEK293 cells expressing TRPM8-wt", "type": "cell-based", "details": "for Inhibition of voltage-activated TRPM8-wt current: 33°C, +120 mV", "method": "as §1, §2, §3, §4\nExperiments were always performed in parallel with cells expressing TRPM8-wt and TRPM8-Y745H to minimize any day-to-day variability in experimental conditions. […]"}, "TRPM8-wt channel [6]": {"biological_target": "T2, TRPM8-wt channel", "design": "method as in PMID 14757700", "details": "100 μM menthol-activated TRPM8-wt, FLIPR; cited from earlier work"}, "TRPM8-wt channel [7]": {"biological_target": "T2, TRPM8-wt channel", "test": "Calcium imaging (Fura-2) of HEK293 cells expressing TRPM8-wt", "type": "cell-based", "method": "as §1, §2, §5, §4"}, "[8]": {"test": "Solubility in the extracellular solution", "type": "physicochemical", "details": "reproducible data above 20 μM complicated"}, "[9]": {"details": "cold-activated TRPM8-wt, read-out: IC50 cold (converted)"}, "[10]": {"details": "100 μM menthol-activated TRPM8-wt, modified from ref 25, read-out: IC50 menthol"}, "[11]": {"details": "cold-activated TRPM8-wt, read-out: IC50 cold"}, "[12]": {"details": "3 μM antagonist, compared with TRPM8-wt"}, "[13]": {"details": "100 μM, at 33°C or during cooling"}}, "note": "Where two headings read alike, the source gives them in different places.", "data": [{"molecule": "CC(C)(C)c1ccc(NC(=O)N2CCN(c3ncccc3Cl)CC2)cc1", "note": "[BCTC, 4-[3-chloro-pyridin-2-yl]-piperazine-1-carboxylic acid [4-tert-butyl-phenyl]-amide]", "values": [{"measurement": "IC50", "setting": "TRPM8-wt channel [1]; 100 μM menthol-activated TRPM8-wt, modified from ref 25, read-out: IC50 menthol (converted)", "result": 340, "unit": "nM"}, {"measurement": "IC50", "setting": "TRPM8-wt channel [1]; [9]", "result": 540, "unit": "nM"}, {"measurement": "Block of cooling-activated TRPM8-Y745H current", "setting": "[2]; 3 μM, +80 mV", "result": 98, "unit": "%"}, {"measurement": "Inhibition of voltage-activated TRPM8-Y745H current", "setting": "[2]; 33°C, 3 μM", "result": "without affecting the block"}, {"measurement": "IC50", "setting": "TRPM8-wt channel [3]; [10]", "result": "470 ± 10", "unit": "nM"}, {"measurement": "IC50", "setting": "TRPM8-wt channel [3]; [11]", "result": "680 ± 60", "unit": "nM"}, {"measurement": "Block of cold-evoked [Ca2+]i response of TRPM8-Y745H", "setting": "[4]; [12]", "result": "maintained its full and reversible blocking potential"}, {"measurement": "Inhibition of voltage-activated TRPM8-wt current", "setting": "TRPM8-wt channel [5]; 3 μM", "result": "strong inhibition"}]}, {"molecule": "Oc1cc2c(cc1O)CN(C(=S)NCCc1ccc(Cl)cc1)CCC2", "note": "[Capsazepine, N-[2-(4-Chlorophenyl)ethyl]-1,3,4,5-tetrahydro-7,8-dihydroxy-2H-2-benzazepine-2-carbothioamide]", "values": [{"measurement": "IC50", "setting": "TRPM8-wt channel [6]", "result": "18000 ± 1000", "unit": "nM"}, {"measurement": "IC50", "setting": "TRPM8-wt channel [7]; cold-activated TRPM8-wt, calcium imaging (CI), this work", "result": "12000 ± 2000", "unit": "nM"}, {"measurement": "Inhibitory potency at cooling-activated TRPM8-Y745H compared with wild-type (dose-inhibition curves)", "setting": "[4]; calcium imaging, cooling-activated", "result": "lost part of their inhibitory potential"}]}, {"molecule": "Clc1ccccc1C(c1ccccc1)(c1ccccc1)n1ccnc1", "note": "[Clotrimazole, 1-[(2-chlorophenyl)diphenylmethyl]-1H-imidazole]", "values": [{"measurement": "Solubility in the extracellular solution", "setting": "[8]", "result": "limited solubility"}]}, {"molecule": "c1c[nH]cn1", "note": "[Imidazole, 1,3-diazacyclopenta-2,4-diene]", "values": [{"measurement": "Inhibition of cooling-activated TRPM8 wild-type", "setting": "TRPM8-wt channel [7]; 20 μM, 100 μM and 1 mM", "result": "ineffective"}, {"measurement": "Inhibition of cooling-activated TRPM8-Y745H", "setting": "[4]; 20 μM, 100 μM and 1 mM", "result": "ineffective"}]}, {"molecule": "COc1ccc(CCCOC(Cn2ccnc2)c2ccc(OC)cc2)cc1", "note": "(centres unmarked) [SKF96365]", "values": [{"measurement": "IC50", "setting": "TRPM8-wt channel [1]; [9]", "result": 800, "unit": "nM"}, {"measurement": "Block of cold-evoked TRPM8-Y745H current", "setting": "[2]; 3 μM", "result": "completely failed to block"}, {"measurement": "Block of cold-evoked TRPM8-Y745H current", "setting": "[2]; 20 μM", "result": "lacked any inhibitory effects"}, {"measurement": "Inhibition of voltage-activated TRPM8-Y745H current", "setting": "[2]; 33°C, 3 μM", "result": "fully abrogated the inhibition"}, {"measurement": "Apparent gating charge during antagonist application", "setting": "[2]; TRPM8-Y745H, cooling, 3 μM SKF96365", "result": "0.63 ± 0.04"}, {"measurement": "IC50", "setting": "TRPM8-wt channel [3]; [10]", "result": "3000 ± 1000", "unit": "nM"}, {"measurement": "IC50", "setting": "TRPM8-wt channel [3]; [11]", "result": "1000 ± 200", "unit": "nM"}, {"measurement": "Block of cold-evoked [Ca2+]i response of TRPM8-Y745H", "setting": "[4]; [12]", "result": "nearly complete loss of effect"}, {"measurement": "Block of cold-evoked [Ca2+]i response of TRPM8-Y745H", "setting": "[4]; 20 μM (super saturating concentration), compared with 3 μM", "result": "unable to increase block"}, {"measurement": "Block of cold-evoked TRPM8-wt current", "setting": "TRPM8-wt channel [5]; 3 μM", "result": "potent antagonism"}, {"measurement": "Inhibition of voltage-activated TRPM8-wt current", "setting": "TRPM8-wt channel [5]; 3 μM", "result": "strong inhibition"}, {"measurement": "Apparent gating charge during antagonist application", "setting": "TRPM8-wt channel [5]; TRPM8-wt, cooling, 3 μM SKF96365", "result": "0.73 ± 0.04"}]}, {"molecule": "CC1CCC(C(C)C)C(O)C1", "note": "[menthol, L-menthol]", "values": [{"measurement": "Agonist effect on whole-cell current, TRPM8-Y745H", "setting": "[2]; 100 μM, 33°C, all potentials", "result": "completely insensitive to menthol"}, {"measurement": "Agonist effect on intracellular calcium, TRPM8-wt", "setting": "TRPM8-wt channel [7]; [13]", "result": "increase the intracellular calcium levels"}, {"measurement": "Agonist effect on intracellular calcium, TRPM8-Y745H", "setting": "[4]; [13]", "result": "lack of menthol responses"}]}]}
